Measured values from patent US9980907B2, “Thermolabile liposome with a controlled release temperature” (Max-Planck-Gesellschaft zur Förderung der Wissenschaften …, priority 2002, dated 2018).

Experiment: main transition temperature (TM) of phosphatidylcholines
Assay type: physicochemical
Conditions: phosphatidylcholine; acyl chains on positions 1 and 2 of glycero-3-phosphocholine or 1 and 3 of glycero-2-phosphocholine
Method: The abovementioned preferred composition of the liposome according to the invention can be tailor-made for other temperature ranges by choice of components with the main transition temperature suitable in each case. In table 1, the main transition temperatures (TM) of phosphatidylcholines whose main transition temperatures lie in the range from 0 to 80° C. are indicated.

Structure (SMILES) | TM (main transition temperature) [°C]
CCCCCCCCCCCCCCCCCCCC(=O)OCC(COP(=O)([O-])OCC[N+](C)(C)C)OC(=O)CCCCCCCCCCCCCCCCCCC (stereo not drawn) [1,2-diarachinoyl-] | 66
CCCCCCCCCCCCCCCCCCCCCCCC(=O)OCC(COP(=O)([O-])OCC[N+](C)(C)C)OC(=O)CCCCCCCCCCCCCCCCCCCCCCC (stereo not drawn) [1,2-dilignoceroyl-] | 80
CCCCCCCCCCCCCC(=O)OCC(COP(=O)([O-])OCC[N+](C)(C)C)OC(=O)CCCCCCCCCCCCC (stereo not drawn) [1,2-dimyristoyl-] | 23
CCCCCCCCCCCCCCCC(=O)OC[C@H](COP(=O)([O-])OCC[N+](C)(C)C)OC(=O)CCCCCCCCCCCCCCC [1,2-dipalmitoyl-, 1,2-dipalmitoyl-sn-glycero-3-phosphocholine] | 41
CCCCCCCCCCCCCCCCCC(=O)OC[C@H](COP(=O)([O-])OCC[N+](C)(C)C)OC(=O)CCCCCCCCCCCCCCCCC [1,2-distearoyl-, 1,2-distearoyl-sn-glycero-3-phosphocholine] | 56
CCCCCCCC/C=C\CCCCCCCC(=O)OC(COC(=O)CCCCCCCCCCCCCCCCCCCCC)COP(=O)([O-])OCC[N+](C)(C)C (stereo not drawn) [1-behenoyl-2-oleoyl-] | 14
CCCCCCCCCCCCCCCC(=O)OCC(COP(=O)([O-])OCC[N+](C)(C)C)OC(=O)CCCCCCCCCCC (stereo not drawn) [1-palmitoyl-2-lauroyl-] | 11
CCCCCCCCCCCCCCCC(=O)OCC(COP(=O)([O-])OCC[N+](C)(C)C)OC(=O)CCCCCCCCCCCCC (stereo not drawn) [1-palmitoyl-2-myristoyl-] | 27
CCCCCCCC/C=C\CCCCCCCC(=O)OC(COC(=O)CCCCCCCCCCCCCCC)COP(=O)([O-])OCC[N+](C)(C)C (stereo not drawn) [1-palmitoyl-2-oleoyl-] | 5
CCCCCCCCCCCCCCCCCC(=O)OCC(COP(=O)([O-])OCC[N+](C)(C)C)OC(=O)CCCCCCCCCCC (stereo not drawn) [1-stearoyl-2-lauroyl-] | 17
CCCCCCCCCCCCCCCCCC(=O)OCC(COP(=O)([O-])OCC[N+](C)(C)C)OC(=O)CCCCCCCCCCCCC (stereo not drawn) [1-stearoyl-2-myristoyl-] | 33
CCCCCCCC/C=C\CCCCCCCC(=O)OC(COC(=O)CCCCCCCCCCCCCCCCC)COP(=O)([O-])OCC[N+](C)(C)C (stereo not drawn) [1-stearoyl-2-oleoyl-] | 7
